Literature values as cited in patent US20040198651A1, “Secreted proteins” (priority 2001, published 2004).

Tests used:
[1] = relative to progesterone
[2] = intranasal; relative to hydrocortisone

Compound	pharmacological activity greater than progesterone [1]	anti-inflammatory and vasoconstrictive effects greater than those produced by hydrocortisone [2]
6α-methyl-17-hydroxyprogesterone [medroxyprogesterone]	about 15 times	–
C[C@H]1C[C@H]2[C@@H]3CCC4=CC(=O)C=C[C@]4(C)[C@@]3(Cl)[C@@H](O)C[C@]2(C)[C@@]1(O)C(=O)CO [beclomethasone]	–	5000 times
